These results are taken from patent US8344028B2, “Gamma-amino-butyric acid derivatives as GABAB receptor ligands” (XenoPort, Inc., priority 2009, dated 2013).

Type in all cases: cell-based
Experiment [1] addresses T1, recombinant human GABABR1a2 (Homo sapiens, UniProt Q9UBS5).
T1 construct: expressed in transfected cells; host or cells: HEK cells
In words: Ca2+ assay for determining GABAB receptor agonist activity. The settings on record: cells expressing recombinant human GABABR1a2.

The next experiment concerns the target GABAB receptor (Homo sapiens, UniProt Q9UBS5). In words: GABAB receptor agonist or partial agonist activity by binding, electrophysiology, cAMP and/or Ca2+ assay methods (Examples 83-86). The gist of the method:
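Binding: rat cortex membranes in 50 mM Tris pH 7.4 with 100 μM isoguvacine were preincubated 10 min at RT with compound, then radiolabeled CGP54626 (1-10 nM) was added; filtered and scintillation-counted. cAMP: GABAB R1a2 HEK cells, 1 h RT with 100 μM forskolin, chemiluminescence.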

For experiment [2], the target named is T1, recombinant human GABABR1a2. In words: cAMP assay for determining GABAB receptor agonist activity. The settings on record: cells expressing recombinant human GABABR1a2; read-out: cAMP EC50. Background: Cyclic AMP is a second messenger, typically raised through Gs and lowered through Gi signalling.

T1 sequence (Q9UBS5 15-961 limits assumed): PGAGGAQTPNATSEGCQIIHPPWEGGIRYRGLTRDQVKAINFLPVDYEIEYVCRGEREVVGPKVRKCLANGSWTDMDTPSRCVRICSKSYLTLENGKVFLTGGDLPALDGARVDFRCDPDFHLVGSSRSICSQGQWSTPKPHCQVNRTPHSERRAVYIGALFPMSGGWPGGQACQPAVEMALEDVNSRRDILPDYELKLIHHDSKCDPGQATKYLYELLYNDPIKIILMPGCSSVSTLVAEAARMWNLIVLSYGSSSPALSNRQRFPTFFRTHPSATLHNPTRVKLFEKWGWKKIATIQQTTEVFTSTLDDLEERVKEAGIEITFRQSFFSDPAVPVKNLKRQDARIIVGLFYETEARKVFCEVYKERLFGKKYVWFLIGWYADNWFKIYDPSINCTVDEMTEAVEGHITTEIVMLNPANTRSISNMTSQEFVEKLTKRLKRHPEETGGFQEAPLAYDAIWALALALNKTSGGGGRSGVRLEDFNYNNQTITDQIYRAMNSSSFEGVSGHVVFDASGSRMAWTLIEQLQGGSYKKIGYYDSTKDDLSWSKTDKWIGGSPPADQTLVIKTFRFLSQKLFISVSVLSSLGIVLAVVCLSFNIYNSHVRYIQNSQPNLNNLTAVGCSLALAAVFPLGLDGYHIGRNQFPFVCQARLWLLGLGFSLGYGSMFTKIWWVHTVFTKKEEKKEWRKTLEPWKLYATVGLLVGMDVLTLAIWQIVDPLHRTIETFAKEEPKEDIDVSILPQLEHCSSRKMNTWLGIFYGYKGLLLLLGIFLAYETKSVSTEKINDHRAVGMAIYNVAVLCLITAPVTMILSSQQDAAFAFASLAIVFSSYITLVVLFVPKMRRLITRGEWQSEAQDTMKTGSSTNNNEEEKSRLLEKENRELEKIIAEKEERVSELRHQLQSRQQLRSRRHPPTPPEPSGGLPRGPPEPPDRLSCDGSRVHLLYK
T1 sequence (O75899 42-941 partner): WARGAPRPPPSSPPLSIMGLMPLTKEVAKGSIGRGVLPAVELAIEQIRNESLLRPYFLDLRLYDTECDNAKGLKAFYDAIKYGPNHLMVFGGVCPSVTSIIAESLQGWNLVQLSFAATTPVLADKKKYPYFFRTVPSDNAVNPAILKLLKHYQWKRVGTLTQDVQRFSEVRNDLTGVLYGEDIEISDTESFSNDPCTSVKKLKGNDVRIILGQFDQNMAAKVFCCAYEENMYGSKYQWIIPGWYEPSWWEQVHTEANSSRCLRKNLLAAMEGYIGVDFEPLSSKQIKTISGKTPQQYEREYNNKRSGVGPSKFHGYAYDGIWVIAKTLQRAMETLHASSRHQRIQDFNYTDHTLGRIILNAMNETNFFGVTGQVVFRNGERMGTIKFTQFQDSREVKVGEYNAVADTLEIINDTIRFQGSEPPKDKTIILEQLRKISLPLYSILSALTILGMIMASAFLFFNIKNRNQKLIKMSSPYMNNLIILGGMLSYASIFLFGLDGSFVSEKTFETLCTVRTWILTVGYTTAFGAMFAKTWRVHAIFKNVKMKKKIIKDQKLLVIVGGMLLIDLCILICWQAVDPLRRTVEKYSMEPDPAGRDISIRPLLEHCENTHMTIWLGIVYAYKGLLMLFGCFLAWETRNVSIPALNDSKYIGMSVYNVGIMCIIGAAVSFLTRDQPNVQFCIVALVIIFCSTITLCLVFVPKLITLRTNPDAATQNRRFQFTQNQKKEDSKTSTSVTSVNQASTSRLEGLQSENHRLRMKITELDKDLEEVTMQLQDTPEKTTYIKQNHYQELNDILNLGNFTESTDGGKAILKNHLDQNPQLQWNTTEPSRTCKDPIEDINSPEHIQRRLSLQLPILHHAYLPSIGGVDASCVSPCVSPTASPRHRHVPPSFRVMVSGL
Sequence of GABAB receptor (Q9UBS5 20-961): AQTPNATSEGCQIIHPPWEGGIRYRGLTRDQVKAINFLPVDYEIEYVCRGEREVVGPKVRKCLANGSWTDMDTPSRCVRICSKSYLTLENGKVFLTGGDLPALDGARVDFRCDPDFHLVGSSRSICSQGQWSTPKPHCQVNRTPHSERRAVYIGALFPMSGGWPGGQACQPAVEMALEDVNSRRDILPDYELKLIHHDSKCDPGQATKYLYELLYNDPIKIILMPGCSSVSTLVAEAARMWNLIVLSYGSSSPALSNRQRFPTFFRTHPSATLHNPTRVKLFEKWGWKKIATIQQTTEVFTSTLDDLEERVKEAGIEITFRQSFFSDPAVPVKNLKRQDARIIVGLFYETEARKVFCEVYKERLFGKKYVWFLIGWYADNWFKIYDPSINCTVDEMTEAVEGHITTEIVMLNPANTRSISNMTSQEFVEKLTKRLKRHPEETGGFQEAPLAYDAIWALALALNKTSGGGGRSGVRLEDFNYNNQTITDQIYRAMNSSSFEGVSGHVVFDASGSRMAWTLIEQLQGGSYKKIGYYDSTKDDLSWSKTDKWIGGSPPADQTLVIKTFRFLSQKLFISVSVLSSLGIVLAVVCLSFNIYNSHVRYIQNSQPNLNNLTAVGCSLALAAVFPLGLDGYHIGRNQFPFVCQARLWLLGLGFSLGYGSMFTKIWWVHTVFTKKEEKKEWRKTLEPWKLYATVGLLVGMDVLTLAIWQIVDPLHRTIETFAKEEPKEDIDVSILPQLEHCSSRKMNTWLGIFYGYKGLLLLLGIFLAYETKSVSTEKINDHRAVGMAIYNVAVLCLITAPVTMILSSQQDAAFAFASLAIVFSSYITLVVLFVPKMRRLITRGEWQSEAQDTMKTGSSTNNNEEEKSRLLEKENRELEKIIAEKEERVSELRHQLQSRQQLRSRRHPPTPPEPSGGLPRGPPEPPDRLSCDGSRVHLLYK
Sequence of GABAB receptor (O75899 42-941 partner): as the sequence (O75899 42-941 partner) above

What is called EC50 is the midpoint of the concentration-response curve. Take `Cl.NC[C@H](CC(=O)O)c1ccc(Cl)c(OCc2ccncc2)c1` [Example 68, (3R)-4-Amino-3-[4-chloro-3-(4-pyridylmethoxy)phenyl]butanoic acid hydrochloride]: the 50% effective concentration (EC50) is below 700 nM in experiment [1] and below 100 nM in experiment [2]. On GABAB receptor, the “GABAB receptor agonist or partial agonist activity” value was “agonist or partial agonist activity”.
